According to US20080306155A1, “METHOD FOR TREATING RENAL DISEASE” (priority 2004, published 2008):
Where “and” joins values, the source holds several entries; their conditions need not be identical. Identical values can stand only once.

Columns and labels:
Format in all cases: cell-based, rat
[1] = tested on: glomerular production of 20-HETE; experiment: LC/MS measurement of glomerular 20-HETE production
Description: Liquid Chromatography/Mass Spectroscopy measurement of glomerular 20-HETE production: Glomeruli (approximately 20 μg protein) were incubated in a 0.1 mol/L KPO4 buffer containing 1 mmol/L NADPH for 30 minutes at 37° C. in the presence and absence of TGF-•1 (10 ng/ml). Incubations were stopped by acidification with formic acid, homogenized, and the homogenate extracted with chloroform:methanol (2:1) after addition of 10 ng of internal standard, 14,15-epoxyeicosa-5(Z)-enoic-methyl sulfonylimide (EEZE). Samples were reconstituted in 50% acetonitrile, cleaned up using on online, reverse-phase high performance liquid chromatography (HPLC) trapping column, and then the HETEs and epoxyeicosatrienoic acids (EETs) in the samples were separated using an isocratic step gradient on an 18C—RP 2×250 mm microbore HPLC (BetaBasic18 150×21 3•m; Thermo Hypersil-Keystone; Bellefonte, Pa.) using a mobile phase consisting of acetonitrile:water:acetic acid (57:43:0.1) for 20 minutes to resolve the HETEs followed by acetonitrile:water:acetic acid (63:37:0.1) for 15 minutes to resolve the EETs. Samples were ionized using negative ion electrospray and the peaks eluting with a mass/charge ratio (m/z) of 319 (HETEs and EETs) or 323 (internal standard) were isolated and monitored in the selective ion mass spectroscopy (MS) mode using an Agilent LSD ion trap mass spectrometer (Agilent Technologies 1100; Santa Clara Calif.). The ratio of ion abundances in the peaks of interest (HETEs and EETs, m/z 319) versus that corresponding to the closely eluting internal standard (EEZE, m/z 323) were determined and compared with a standard curve generated over a range from 0.1 ng to 2 ng of 20-HETE and EETs with each batch of samples.

isolated glomeruli [2] = experiment: Albumin permeability (Palb) of isolated glomeruli; conditions: glomeruli from Dahl S rats fed HS diet for 7 days; 10 ng/ml
isolated glomeruli [3] = experiment: Albumin permeability (Palb) of isolated glomeruli; conditions: 10 ng/ml
Description: Measurement of Albumin Permeability (Palb): Glomeruli were isolated using the sieving method as previously described in a medium containing 5 g/dl of bovine serum albumin (BSA). See, Sharma R, et al, Kidney Intl. 58:131-136 (2000); and Savin V, et al. J. Am. Soc. Nephrol. 3:1260-1269 (1992). In each experimental condition, Palb was determined from the change in glomerular volume (•V) after exchange of the bath with medium containing 1 g/dl albumin. Palb was calculated as 1−(•Vexperimental/•Vcontrol) where glomeruli from SD rats fed a normal-salt diet were used to provide the control value for each experiment. To verify that lack of •Vs in Dahl S rats were related to changes in Palb rather than to changes in mechanical properties of glomeruli, additional studies were performed in which the glomeruli were exposed to a 5% solution of high molecular weight dextran.
In other experiments, we examined the interaction of TGF-• and 20-HETE on Palb in glomeruli isolated from SD rats and Dahl S rats fed either a LS diet or a HS diet for 4 days. Glomeruli were preincubated with vehicle or TGF-•1 (10 ng/ml) for 15 minutes at 37° C. and changes in Palb were determined. Glomeruli were also pretreated with 5, 14-20-HEDE (WIT003) (1 μmol/L; Taisho Pharmaceutical; Tokyo, Japan) (Alonso-Galicia et al., supra; and Yu et al., supra), for 15 minutes at 37° C. and the Palb response to TGF-• 1 (10 ng/ml) was redetermined. A minimum of 5 glomeruli from each rat were studied, and the experiments were performed using •5 rats per treatment group.

[4] = glomeruli pretreated with TGF-•1 10 ng/ml

With “TGF-•1: transforming growth factor-beta 1, applied to isolated glomeruli at 10 ng/ml” the “glomerular production of 20-HETE” value ([1]; SD glomeruli with TGF-•1 10 ng/ml) was 3.4±0.5 ·g/30 minutes/mg protein, the “formation of 15-, 12- or 5-HETE or EETs” value [1, 4] was “without affecting” and the “reduction of formation of 20-HETE” value [1, 4] was 97%. For the same substance, the “effect on Palb” value (isolated glomeruli [2]) was “no effect”, the “Palb after TGF-•1” value (isolated glomeruli [3]; glomeruli from Dahl S rats fed HS diet for 4 days) was 0.87±0.02 and the “Palb after TGF-•1” value (isolated glomeruli [3]; glomeruli from Dahl S rats fed a LS diet) was 0.75±0.01. The “Palb after TGF-•1” value (isolated glomeruli [3]; glomeruli from SD rats, 15 minutes, 37° C.) was 0.60±0.02 and 0.56±0.02.
